For one test, the target named is Proteasome (Homo sapiens, UniProt P28074). The test is described as follows: X-boroLeu proteasome inhibition: thioxamide v. oxoamide. The settings on record: IC50 ph 7.6 to ph 2.0. The test is classed as biochemical.
In another test the target is DP-IV (Sus scrofa (Pig), UniProt P22411). The test is described as follows: DPP IV inhibition: thioxamide v. oxoamide. The test is classed as biochemical, porcine. The settings on record: for Inactivation Index: IC50 pH 8.0 to pH 2.0. The protocol:
The inhibitory activity of a compound may be tested easily. […] A compound is then screened for its ability to inhibit the protease activity of DP-IV with respect to a […] substrate. […] Briefly, a reaction containing 50 micromol sodium Hepes (pH 7.8), 10 micromol Ala-Pro-p-nitroanilide, 6 milliunits of DP-IV, and 2% (vol/vol) dimethylformamide in a total volume of 1.0 mL. The reaction was initiated by the addition of enzyme and reaction rates were measured at 25 C; formation of reaction product (para-nitroanilide) in the presence and absence of a test compound can be detected photometrically, e.g., at 410 nm.

Setting [1] is: pH 2.0, read-out: IC50 (pH 2.0).
[2] abbreviates: pH 8.0, read-out: IC50 (pH 8.0).

Read-outs that look alike come from different tables or passages of the source.

Proteasome, sequence (P28074 60-263 limits assumed): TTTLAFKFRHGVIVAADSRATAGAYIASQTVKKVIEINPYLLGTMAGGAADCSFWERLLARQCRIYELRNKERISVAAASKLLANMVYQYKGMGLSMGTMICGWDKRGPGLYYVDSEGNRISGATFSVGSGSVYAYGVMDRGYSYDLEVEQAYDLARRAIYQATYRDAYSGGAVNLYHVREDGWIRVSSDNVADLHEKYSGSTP
DP-IV, sequence (P22411 whole entry): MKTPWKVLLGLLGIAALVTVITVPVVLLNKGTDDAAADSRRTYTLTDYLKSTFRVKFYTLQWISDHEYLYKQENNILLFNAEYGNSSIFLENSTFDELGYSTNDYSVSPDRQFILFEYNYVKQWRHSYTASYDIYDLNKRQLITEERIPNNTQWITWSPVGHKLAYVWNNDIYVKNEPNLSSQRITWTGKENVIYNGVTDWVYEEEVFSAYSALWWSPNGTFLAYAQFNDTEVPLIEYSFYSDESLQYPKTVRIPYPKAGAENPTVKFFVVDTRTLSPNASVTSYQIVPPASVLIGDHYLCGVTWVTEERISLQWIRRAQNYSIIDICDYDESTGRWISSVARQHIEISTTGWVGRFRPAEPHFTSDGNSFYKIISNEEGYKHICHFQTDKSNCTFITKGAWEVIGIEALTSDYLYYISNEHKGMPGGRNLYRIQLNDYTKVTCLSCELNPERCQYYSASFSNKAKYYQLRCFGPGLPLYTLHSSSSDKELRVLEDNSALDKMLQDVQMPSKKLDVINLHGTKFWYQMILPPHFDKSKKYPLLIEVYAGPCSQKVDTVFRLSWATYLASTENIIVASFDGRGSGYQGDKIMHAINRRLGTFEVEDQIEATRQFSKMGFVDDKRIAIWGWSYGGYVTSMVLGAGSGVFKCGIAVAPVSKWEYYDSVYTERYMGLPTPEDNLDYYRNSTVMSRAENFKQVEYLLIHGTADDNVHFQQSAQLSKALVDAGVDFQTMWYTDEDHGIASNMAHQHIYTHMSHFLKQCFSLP

On to `CC(C)C[C@H](NC(=S)[C@H](C)N)B(O)O` [Ala-boroLeu Thioxamide], for which the “Inactivation Index” value on Proteasome is listed as 110. With `CC(C)C[C@H](NC(=O)[C@H](C)N)B(O)O` [Ala-boroLeu, reference compound], the “Inactivation Index” value on Proteasome is given as 3.2.

`CC(C)C[C@H](NC(=S)[C@@H](N)CC(=O)O)B(O)O` [Asp-boroLeu Thioxamide]: the “Inactivation Index” value on Proteasome worked out at 2.2. For `CC(C)C[C@H](NC(=S)CN)B(O)O` [Gly-boroLeu Thioxamide], the “Inactivation Index” value on Proteasome amounted to 20. Same read-out and setting: under `CC(C)C[C@H](NC(=O)CN)B(O)O` [Gly-boroLeu, reference compound] stands 11; under `CC(C)C[C@H](NC(=S)CNC(=O)c1cnccn1)B(O)O` [N-(Pyrazine-2-carbonyl)-Gly-boroLeu Thioxamide], 3.8.

On to `CC(C)C[C@H](NC(=O)CNC(=S)c1cnccn1)B(O)O` [N-(Pyrazine-2-carbothio)-Gly-boroLeu], for which the “Inactivation Index” value on Proteasome is on record as 4.5. Still for that read-out and setting: next, `CC(C)C[C@H](NC(=O)[C@@H](N)Cc1ccccc1)B(O)O` [Phe-boroLeu (free Velcade), Phe-boroLeu, reference compound]: 7.5; `CC(C)C[C@H](NC(=S)[C@@H](N)Cc1ccccc1)B(O)O` [Phe-boroLeu Thioxamide]: 20. In the case of `CC(C)C[C@H](NC(=S)CNC(=S)c1cnccn1)B(O)O` [Pyz-Gly-boroLeu Perthioxamide], the “Inactivation Index” value at Proteasome came out at 620.

The term IC50 denotes the concentration at which inhibition is half-maximal. For `CC(C)[C@H](N)C(=S)N[C@@H](C)B(O)O` [Val-boroAla Thioxamide], the “Inactivation Index” value on DP-IV was determined as 3.0. Further, the results for the IC50 on DP-IV (setting [1]) and on DP-IV (setting [2]) were 73 nM and 220 nM, respectively.

As for Chg-boroPro [reference compound], the “Inactivation Index” value at DP-IV was 380. Moreover, the figures for the 50% inhibitory concentration (IC50) on DP-IV (setting [1]) and on DP-IV (setting [2]) were 1 nM and 380 nM, respectively.

These data come from patent US8933056B2, “Soft protease inhibitors and pro-soft forms thereof” (Trustees of Tufts College, priority 2005, dated 2015).
